Test results published in ChEMBL document CHEMBL3608308, “Design, synthesis and antiproliferative activity of novel heterobivalent hybrids based on imidazo[2,1-b][1,3,4]thiadiazole and imidazo[2,1-b][1,3]thiazole scaffolds” (Eur J Med Chem, 2015).
Activity calls are given as the source filed them. The rule behind the calls is not given here.

Key:
L1210 = test: Antiproliferative activity against mouse L1210 cells assessed as inhibition of cell proliferation incubated for 2 days by Coulter counter based assay; type: functional; conditions: L1210, 48 h
FM3A = test: Antiproliferative activity against mouse FM3A cells assessed as inhibition of cell proliferation incubated for 2 days by Coulter counter based assay; type: functional; conditions: 48 h
HeLa = test: Antiproliferative activity against human HeLa cells assessed as inhibition of cell proliferation incubated for 4 days by Coulter counter based assay; type: functional; conditions: 96 h
CCRF-CEM = test: Antiproliferative activity against human CEM cells assessed as inhibition of cell proliferation incubated for 3 days by Coulter counter based assay; type: functional; conditions: 72 h
U-937 [1] = test: Cytotoxicity against human U937 cells over-expressing human Bcl-2 assessed as reduction in cell viability incubated for 72 hrs by MTT assay; type: functional, cell-based
U-937 [2] = test: Induction of apoptosis in human U937 cells assessed as increase in cytochrome c release into cytosol at 3 uM incubated for 8 hrs by immunoblot method; type: functional, cell-based
U-937 [3] = test: Induction of apoptosis in human U937 cells assessed as induction of cell shrinkage at 3 uM incubated for 8 hrs by Hoechst 33258 staining based fluorescent microscopy; type: functional
U-937 [4] = test: Induction of apoptosis in human U937 cells over-expressing human Bcl-2 assessed as induction of increase in apoptotic bodies at 3 uM incubated for 8 hrs by Hoechst 33258 staining based fluorescent microscopy; type: functional, cell-based
U-937 [5] = test: Induction of apoptosis in human U937 cells assessed as induction of increase in condensed and fragmented chromatin at 3 uM incubated for 8 hrs by Hoechst 33258 staining based fluorescent microscopy; type: functional, cell-based
U-937 [6] = test: Cytotoxicity against human U937 cells assessed as reduction in cell viability incubated for 72 hrs by MTT assay; type: functional, cell-based
HL-60 [7] = test: Induction of apoptosis in human HL60 cells assessed as hypodiploid cells level at 1 and 10 uM incubated for 24 hrs by propidium iodide staining based flow cytometry; type: functional, cell-based
HL-60 [8] = test: Induction of apoptosis in human HL60 cells assessed as hypodiploid cells level at 1 uM incubated for 24 hrs by propidium iodide staining based flow cytometry relative to untreated control; type: functional
HL-60 [9] = test: Induction of apoptosis in human HL60 cells assessed as induction of morphological changes by inverted phase contrast microscopy; type: functional, cell-based
U-937 [10] = test: Induction of apoptosis in human U937 cells assessed as induction of increase in apoptotic bodies at 3 uM incubated for 8 hrs by Hoechst 33258 staining based fluorescent microscopy; type: functional, cell-based
HL-60 [11] = test: Induction of apoptosis in human HL60 cells assessed as cleavage of pro-caspase-8 at 3 uM incubated for 8 hrs by immunoblot method; type: functional, cell-based
U-937 [12] = test: Induction of apoptosis in human U937 cells over-expressing human Bcl-2 assessed as induction of morphological changes by inverted phase contrast microscopy; type: functional, cell-based
U-937 [13] = test: Induction of apoptosis in human U937 cells over-expressing human Bcl-2 assessed as increase in cytochrome c release into cytosol at 3 uM incubated for 8 hrs by immunoblot method; type: functional, cell-based
HL-60 [14] = test: Cytotoxicity against human HL60 cells assessed as reduction in cell viability incubated for 72 hrs by MTT assay; type: functional, cell-based
HL-60 [15] = test: Induction of apoptosis in human HL60 cells assessed as hypodiploid cells level at 1 uM incubated for 24 hrs by propidium iodide staining based flow cytometry (reference value: 2.6 +/- 0.6%); type: functional
HL-60 [16] = test: Induction of apoptosis in human HL60 cells assessed as cleavage of pro-caspase-3 at 3 uM incubated for 8 hrs by immunoblot method; type: functional, cell-based
HL-60 [17] = test: Induction of apoptosis in human HL60 cells assessed as cleavage of pro-caspase-3/7 activity at 3 uM incubated for 8 hrs DEVD-pNA chromogenic substrate proteolytic cleavage assay; type: functional
HL-60 [18] = test: Induction of apoptosis in human HL60 cells assessed as increase in cytochrome c release into cytosol at 3 uM incubated for 8 hrs by immunoblot method; type: functional, cell-based
U-937 [19] = test: Induction of apoptosis in human U937 cells assessed as induction of morphological changes by inverted phase contrast microscopy; type: functional, cell-based
HL-60 [20] = test: Induction of DNA laddering in human HL60 cells at 3 to 10 uM incubated for 24 hrs by ethidium bromide staining based gel electrophoresis method; type: functional, cell-based
HL-60 [21] = test: Induction of apoptosis in human HL60 cells assessed as cleavage of pro-caspase-9 at 3 uM incubated for 8 hrs by immunoblot method; type: functional, cell-based
U-937 [22] = test: Induction of apoptosis in human U937 cells assessed as cleavage of pro-caspase-8 at 3 uM incubated for 8 hrs by immunoblot method; type: functional, cell-based
U-937 [23] = test: Induction of apoptosis in human U937 cells assessed as cleavage of pro-caspase-9 at 3 uM incubated for 8 hrs by immunoblot method; type: functional, cell-based
U-937 [24] = test: Induction of apoptosis in human U937 cells over-expressing human Bcl-2 assessed as induction of increase in condensed and fragmented chromatin at 3 uM incubated for 8 hrs by Hoechst 33258 staining based fluorescent microscopy; type: functional, cell-based
U-937 [25] = test: Induction of apoptosis in human U937 cells over-expressing human Bcl-2 assessed as induction of cell shrinkage at 3 uM incubated for 8 hrs by Hoechst 33258 staining based fluorescent microscopy; type: functional
U-937 [26] = test: Induction of apoptosis in human U937 cells assessed as cleavage of pro-caspase-3 at 3 uM incubated for 8 hrs by immunoblot method; type: functional, cell-based
SK-MEL-1 = test: Cytotoxicity against human SK-MEL-1 cells assessed as reduction in cell viability incubated for 72 hrs by MTT assay; type: functional, cell-based

C=C(Br)C(=O)Nc1cccc(-c2cn3nc(Cc4ccc(Cl)cc4)sc3n2)c1
IC50 (L1210): 2300 nM
IC50 (FM3A): 1100 nM
IC50 (HeLa): 2700 nM
IC50 (CCRF-CEM): 3300 nM

Nc1cccc(-c2cn3nc(CCc4ccccc4)sc3n2)c1
IC50 (L1210): 31000 nM
IC50 (FM3A): 29000 nM
IC50 (HeLa): 242000 nM
IC50 (CCRF-CEM): 30000 nM

CCOc1ccc(-c2nn3cc(-c4cccc(N)c4)nc3s2)cc1
IC50 (L1210): 155000 nM
IC50 (FM3A): ≥ 250000 nM
IC50 (HeLa): 94000 nM
IC50 (CCRF-CEM): > 250000 nM

C=C(Br)C(=O)Nc1cccc(-c2cn3nc(-c4cccs4)sc3n2)c1
Activity (U-937 [1]): Dose-dependent effect
IC50 (U-937 [1]; U-937, 72 h): 270 nM
Activity (U-937 [2]): Active
Activity (U-937 [3]): Active
Activity (U-937 [4]): Active
Activity (U-937 [5]): Active
Activity (U-937 [6]): Dose-dependent effect
IC50 (U-937 [6]; U-937, 72 h): 570 nM
Activity (HL-60 [7]): Dose-dependent effect
fold change (FC) (HL-60 [8]): 5.6
Activity (HL-60 [9]): Active
Activity (U-937 [10]): Active
Activity (HL-60 [11]): Active
Activity (U-937 [12]): Active
IC50 (L1210): 170 nM
Activity (U-937 [13]): Active
Activity (HL-60 [14]): Dose-dependent effect
IC50 (HL-60 [14]; HL-60, 72 h): 380 nM
Activity (HL-60 [15]): 14.5%
Activity (HL-60 [16]): Active
fold change (FC) (HL-60 [17]): 3
Activity (HL-60 [18]): Active
Activity (U-937 [19]): Active
Activity (HL-60 [20]): inactive
Activity (HL-60 [21]): Active
IC50 (FM3A): 370 nM
Activity (U-937 [22]): Active
Activity (U-937 [23]): Active
Activity (U-937 [24]): Active
IC50 (HeLa): 670 nM
Activity (U-937 [25]): Active
IC50 (CCRF-CEM): 410 nM
Activity (U-937 [26]): Active
Activity (SK-MEL-1): Dose-dependent effect
IC50 (SK-MEL-1; SK-MEL-1, 72 h): 690 nM

C=C(Br)C(=O)Nc1cccc(-c2cn3nc(-c4ccc(OCC)cc4)sc3n2)c1
IC50 (L1210): 790 nM
IC50 (FM3A): 1100 nM
IC50 (HeLa): 1100 nM
IC50 (CCRF-CEM): 1400 nM

C=C(Br)C(=O)Nc1cccc(-c2cn3nc(-c4ccccc4)sc3n2)c1
IC50 (L1210): 600 nM
IC50 (FM3A): 900 nM
IC50 (HeLa): 1400 nM
IC50 (CCRF-CEM): 960 nM

Nc1cccc(-c2cn3c(-c4ccccc4)csc3n2)c1
IC50 (L1210): 85000 nM
IC50 (FM3A): 34000 nM
IC50 (HeLa): 60000 nM
IC50 (CCRF-CEM): 29000 nM

COc1ccc(-c2nn3cc(-c4cccc(N)c4)nc3s2)cc1
IC50 (L1210): ≥ 250000 nM
IC50 (FM3A): 74000 nM
IC50 (HeLa): ≥ 250000 nM
IC50 (CCRF-CEM): ≥ 250000 nM

Nc1cccc(-c2cn3nc(-c4ccc(Cl)cc4)sc3n2)c1
IC50 (L1210): ≥ 250000 nM
IC50 (FM3A): 160000 nM
IC50 (HeLa): 160000 nM
IC50 (CCRF-CEM): > 250000 nM

C=C(Br)C(=O)Nc1cccc(-c2cn3c(-c4ccccc4)csc3n2)c1
IC50 (L1210): 1300 nM
IC50 (FM3A): 1300 nM
IC50 (HeLa): 3400 nM
IC50 (CCRF-CEM): 2800 nM

Cc1ccc(-c2nn3cc(-c4cccc(N)c4)nc3s2)cc1
IC50 (L1210): 4800 nM
IC50 (FM3A): 5800 nM
IC50 (HeLa): 8900 nM
IC50 (CCRF-CEM): 5900 nM

C=C(Br)C(=O)Nc1cccc(-c2cn3nc(-c4ccc(Cl)cc4)sc3n2)c1
IC50 (L1210): 1400 nM
IC50 (FM3A): 2000 nM
IC50 (HeLa): 3000 nM
IC50 (CCRF-CEM): 3200 nM

C=C(Br)C(=O)Nc1cccc(-c2cn3nc(Cc4ccc(OC)cc4)sc3n2)c1
IC50 (L1210): 1400 nM
IC50 (FM3A): 850 nM
IC50 (HeLa): 2300 nM
IC50 (CCRF-CEM): 2300 nM

Nc1cccc(-c2cn3c(-c4ccc(Cl)cc4)csc3n2)c1
IC50 (L1210): 22000 nM
IC50 (FM3A): 11000 nM
IC50 (HeLa): 17000 nM
IC50 (CCRF-CEM): 21000 nM

C=C(Br)C(=O)Nc1cccc(-c2cn3nc(CCc4ccccc4)sc3n2)c1
IC50 (L1210): 2200 nM
IC50 (FM3A): 2600 nM
IC50 (HeLa): 3300 nM
IC50 (CCRF-CEM): 4200 nM

C=C(Br)C(=O)Nc1cccc(-c2cn3nc(-c4ccc(C)cc4)sc3n2)c1
IC50 (L1210): 920 nM
IC50 (FM3A): 1200 nM
IC50 (HeLa): 2000 nM
IC50 (CCRF-CEM): 1700 nM
